Data on 17 compounds can be found in patent US11033539B2, “Compounds of formulas (VII), (VIII), (IX), (XI), (XII), (XIII), and (XIV) as muscarinic receptor 4(M4) antagonists for treating neurological diseases” (Neurocrine Biosciences, Inc., priority 2015, dated 2021).

One assay addresses human M4 receptor (Homo sapiens (Human), UniProt P08173). Briefly: Radioligand (tritiated N-methylscopolamine) binding assay, M4. To be noted: Ki against the M4 receptor; membranes from CHO cells expressing human M4; tritiated N-methylscopolamine 1.5 nM; read-out: Ki. The essentials:
(§1)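 CHO membranes; 1.5 nM radioligand; 12-point compound dose-response, 10 μM to […]; HEPES/NaCl/MgCl2/EDTA buffer pH 7.4; 90 min, 37 °C. PEI-treated glass fiber filtration, radioactivity counting. Ki from inhibition of binding.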

For a further assay, the target named is human M5 receptor (Homo sapiens (Human), UniProt P08912). Briefly: Radioligand (tritiated N-methylscopolamine) binding assay, M5. To be noted: CHO cell membranes expressing human M5; 1.5 nM tritiated N-methylscopolamine; 90 min, 37° C.; read-out: Ki against M5 receptor (Table 21, M5). The essentials:
as §1

The next assay concerns the target human M3 receptor (Homo sapiens (Human), UniProt P20309). Nature of the assay: Radioligand (tritiated N-methylscopolamine) binding assay, M3. The note with it: CHO cell membranes expressing human M3; 1.5 nM tritiated N-methylscopolamine; 90 min, 37° C.; read-out: Ki against M3 receptor (Table 21, M3). Summed up: as §1
The target of another assay is human M1 receptor (Homo sapiens (Human), UniProt P11229). Nature of the assay: Radioligand (tritiated N-methylscopolamine) binding assay, M1. To be noted: CHO cell membranes expressing human M1; 1.5 nM tritiated N-methylscopolamine; 90 min, 37° C.; read-out: Ki against M1 receptor (Table 21, M1). The essentials:
as §1

The target of the next assay is human M2 receptor (Homo sapiens (Human), UniProt P08172). Nature of the assay: Radioligand (tritiated N-methylscopolamine) binding assay, M2. The note with it: CHO cell membranes expressing human M2; 1.5 nM tritiated N-methylscopolamine; 90 min, 37° C.; read-out: Ki against M2 receptor (Table 21, M2). Summed up:
as §1

One may read the Ki as the dissociation constant of the complex between target and ligand, obtained from inhibition or displacement.

human M5 receptor, sequence (P08912 whole entry): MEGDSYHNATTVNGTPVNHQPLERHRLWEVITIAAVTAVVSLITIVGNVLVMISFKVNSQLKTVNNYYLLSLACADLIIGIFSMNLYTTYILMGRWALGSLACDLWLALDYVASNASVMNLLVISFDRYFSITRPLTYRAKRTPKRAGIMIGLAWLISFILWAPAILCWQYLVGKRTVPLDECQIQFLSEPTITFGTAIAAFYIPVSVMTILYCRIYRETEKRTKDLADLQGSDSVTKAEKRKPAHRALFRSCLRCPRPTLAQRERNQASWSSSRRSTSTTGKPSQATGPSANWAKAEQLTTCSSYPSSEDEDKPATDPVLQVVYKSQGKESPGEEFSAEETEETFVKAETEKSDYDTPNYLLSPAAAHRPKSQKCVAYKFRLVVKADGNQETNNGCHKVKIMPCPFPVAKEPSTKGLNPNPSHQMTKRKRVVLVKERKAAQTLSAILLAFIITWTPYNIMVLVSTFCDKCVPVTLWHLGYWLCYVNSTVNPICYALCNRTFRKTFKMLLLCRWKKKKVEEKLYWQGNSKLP
human M1 receptor, sequence (P11229 whole entry): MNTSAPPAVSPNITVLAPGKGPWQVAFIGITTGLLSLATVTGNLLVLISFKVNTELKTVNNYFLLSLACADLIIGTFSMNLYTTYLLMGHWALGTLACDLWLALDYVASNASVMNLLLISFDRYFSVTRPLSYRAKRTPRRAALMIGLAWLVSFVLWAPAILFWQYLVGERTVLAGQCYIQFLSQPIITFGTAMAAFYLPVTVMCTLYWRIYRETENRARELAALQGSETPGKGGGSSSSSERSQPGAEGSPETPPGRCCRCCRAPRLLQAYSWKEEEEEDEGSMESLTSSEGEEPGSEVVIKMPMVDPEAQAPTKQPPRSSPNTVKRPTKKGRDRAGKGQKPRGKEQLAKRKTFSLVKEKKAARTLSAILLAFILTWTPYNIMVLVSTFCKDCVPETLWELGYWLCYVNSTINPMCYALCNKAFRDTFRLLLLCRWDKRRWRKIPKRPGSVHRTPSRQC
human M4 receptor, sequence (P08173 whole entry): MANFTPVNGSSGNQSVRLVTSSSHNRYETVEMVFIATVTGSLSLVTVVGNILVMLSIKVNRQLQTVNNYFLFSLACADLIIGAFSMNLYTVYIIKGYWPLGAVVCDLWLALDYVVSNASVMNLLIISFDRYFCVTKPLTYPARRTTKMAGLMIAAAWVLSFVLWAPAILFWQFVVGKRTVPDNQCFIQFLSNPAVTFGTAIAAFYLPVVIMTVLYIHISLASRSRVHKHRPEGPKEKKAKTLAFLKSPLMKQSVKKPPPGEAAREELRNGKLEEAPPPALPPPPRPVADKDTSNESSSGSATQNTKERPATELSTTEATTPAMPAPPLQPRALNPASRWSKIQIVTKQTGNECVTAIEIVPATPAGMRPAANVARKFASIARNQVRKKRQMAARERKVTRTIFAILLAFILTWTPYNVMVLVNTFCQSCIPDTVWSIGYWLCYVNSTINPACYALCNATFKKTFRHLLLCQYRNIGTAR
human M3 receptor, sequence (P20309 whole entry): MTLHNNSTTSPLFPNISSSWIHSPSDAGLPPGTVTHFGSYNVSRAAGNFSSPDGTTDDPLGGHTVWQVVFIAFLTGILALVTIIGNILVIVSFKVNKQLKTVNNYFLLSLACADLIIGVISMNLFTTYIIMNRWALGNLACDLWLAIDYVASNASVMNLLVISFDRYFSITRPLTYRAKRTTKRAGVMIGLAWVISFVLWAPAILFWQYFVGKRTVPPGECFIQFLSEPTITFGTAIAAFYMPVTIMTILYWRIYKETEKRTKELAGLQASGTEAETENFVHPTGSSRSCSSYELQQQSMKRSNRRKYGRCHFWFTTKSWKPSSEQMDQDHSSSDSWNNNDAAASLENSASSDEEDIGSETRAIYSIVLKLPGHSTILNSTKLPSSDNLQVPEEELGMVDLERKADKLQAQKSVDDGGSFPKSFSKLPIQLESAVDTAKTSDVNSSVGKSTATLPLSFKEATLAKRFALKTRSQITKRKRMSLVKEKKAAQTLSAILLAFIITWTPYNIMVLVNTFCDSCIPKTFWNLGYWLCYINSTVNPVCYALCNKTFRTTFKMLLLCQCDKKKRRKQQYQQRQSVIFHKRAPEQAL
human M2 receptor, sequence (P08172 whole entry): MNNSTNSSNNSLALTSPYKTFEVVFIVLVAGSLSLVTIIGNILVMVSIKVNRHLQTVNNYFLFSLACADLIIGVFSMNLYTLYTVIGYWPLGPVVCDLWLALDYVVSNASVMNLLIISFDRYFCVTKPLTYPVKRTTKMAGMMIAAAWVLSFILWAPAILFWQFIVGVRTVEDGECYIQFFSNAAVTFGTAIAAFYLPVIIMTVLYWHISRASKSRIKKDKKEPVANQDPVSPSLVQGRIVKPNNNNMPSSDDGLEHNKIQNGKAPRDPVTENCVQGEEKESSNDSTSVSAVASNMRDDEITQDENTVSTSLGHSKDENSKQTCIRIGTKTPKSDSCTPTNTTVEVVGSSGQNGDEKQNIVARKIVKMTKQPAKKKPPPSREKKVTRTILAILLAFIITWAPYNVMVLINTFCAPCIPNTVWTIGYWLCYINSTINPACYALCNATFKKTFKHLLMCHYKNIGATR

On to `C[C@@H]1CN(c2cc(F)c(C#N)c(F)c2)CCN1C(=O)NCCC1CCN(Cc2ccccc2)CC1` [22-12], for which the Ki is below 10 nM at human M4 receptor; 100 to 1000 nM on human M5 receptor; above 1000 nM at human M3 receptor; above 1000 nM at human M1 receptor; 10 to 100 nM at human M2 receptor.

In the case of `Cc1c(C(=O)NCCC2CCN(Cc3ccccc3)CC2)cnc2cc(-c3cc(F)c(F)c(F)c3)nn12` [18-17], the Ki at human M4 receptor was below 10 nM; on human M5 receptor, above 1000 nM; on human M3 receptor it was above 1000 nM; on human M1 receptor it was above 1000 nM; at human M2 receptor, 100 to 1000 nM.

On to `C[C@@H]1CN(c2ccc(F)c(C#N)c2)CCN1C(=O)NC[C@H](O)C1CCN(Cc2ccccc2)CC1` [7-12, (2R)-N-[(2R)-2-(1-benzylpiperidin-4-yl)-2-hydroxyethyl]-4-(3-cyano-4-fluorophenyl)-2-methylpiperazine-1-carboxamide], for which the Ki on human M4 receptor is below 10 nM; at human M5 receptor, above 1000 nM; at human M3 receptor, above 1000 nM; on human M1 receptor, above 1000 nM; on human M2 receptor it was above 1000 nM.

Consider `C[C@@H]1CN(c2cc(F)c(F)c(Cl)c2)CCN1C(=O)NCCC1CCN(Cc2ccccc2)CC1` [4-52, (2R)-N-[2-(1-benzylpiperidin-4-yl)ethyl]-4-(3-chloro-4,5-difluorophenyl)-2-methylpiperazine-1-carboxamide], for which the inhibition constant (Ki) on human M4 receptor is below 10 nM; on human M5 receptor, above 1000 nM; at human M3 receptor it was 100 to 1000 nM; on human M1 receptor it was 100 to 1000 nM; at human M2 receptor, 10 to 100 nM.

`C[C@@H]1CN(c2ncc(C#N)cn2)C[C@H](C)N1C(=O)NCCC1CCN(Cc2ccc(F)cc2)CC1` [6-48, (2R,6S)-4-(5-cyanopyrimidin-2-yl)-N-(2-{1-[(4-fluorophenyl)methyl]-piperidin-4-yl}ethyl)-2,6-dimethylpiperazine-1-carboxamide]: the Ki on human M4 receptor is below 10 nM; on human M5 receptor, above 1000 nM; at human M3 receptor, above 1000 nM; on human M1 receptor, above 1000 nM; at human M2 receptor it was 10 to 100 nM.

With `Cc1c(C(=O)NCCC2(O)CCN(Cc3ccccc3)CC2)cnc2cc(-c3cccc(C(F)(F)F)c3)nn12` [17-3, N-[2-(1-benzyl-4-hydroxypiperidin-4-yl)ethyl]-7-methyl-2-[3-(trifluoromethyl)phenyl]pyrazolo[1,5-a]pyrimidine-6-carboxamide], the inhibition constant Ki on human M4 receptor is below 10 nM; at human M5 receptor, above 1000 nM; at human M3 receptor, above 1000 nM; on human M1 receptor, 100 to 1000 nM; at human M2 receptor, 100 to 1000 nM.

Turning to `C[C@@H]1CN(c2ncc(Cl)cn2)C[C@H](C)N1C(=O)NCCC1CCN(Cc2ccccc2)CC1` [5-18, (2S,6R)-N-[2-(1-benzylpiperidin-4-yl)ethyl]-4-(5-chloropyrimidin-2-yl)-2,6-dimethylpiperazine-1-carboxamide], the inhibition constant Ki is below 10 nM on human M4 receptor; above 1000 nM on human M5 receptor; above 1000 nM on human M3 receptor; above 1000 nM on human M1 receptor; 10 to 100 nM at human M2 receptor.

With `C[C@@H]1CN(c2cc(F)c(F)c(F)c2)CCN1C(=O)NCCC1CCN(Cc2ccc3[nH]ccc3c2)CC1` [6-1, (2R)-N-{2-[1-(1H-indol-5-ylmethyl)piperidin-4-yl]ethyl}-2-methyl-4-(3,4,5-trifluorophenyl)piperazine-1-carboxamide], the Ki on human M4 receptor is below 10 nM; at human M5 receptor, 100 to 1000 nM; on human M3 receptor it was 100 to 1000 nM; at human M1 receptor, 100 to 1000 nM; on human M2 receptor, below 10 nM.

Consider `O=C(NCCC1CCN(Cc2ccccc2)CC1)C1CCN(c2ncc(C(F)(F)F)cc2Cl)CC1` [9-63, N-[2-(1-benzylpiperidin-4-yl)ethyl]-1-[3-chloro-5(trifluoromethyl)pyridin-2-yl]piperidine-4-carboxamide], for which the Ki on human M4 receptor was below 10 nM; on human M5 receptor it was 100 to 1000 nM; on human M3 receptor, 10 to 100 nM; at human M1 receptor it was 10 to 100 nM; at human M2 receptor, below 10 nM.

Consider `C[C@@H]1CN(c2ccc(C#N)c(F)c2)C[C@H](C)N1C(=O)NCCC1CCN(Cc2ccccc2)CC1` [22-4], for which the Ki was below 10 nM on human M4 receptor; above 1000 nM at human M5 receptor; above 1000 nM on human M3 receptor; above 1000 nM at human M1 receptor; 10 to 100 nM at human M2 receptor.

As for `C[C@H]1CN(C(=O)NCCC2CCN(Cc3ccccc3)CC2)CCN1c1cc(F)c(F)c(F)c1` [4-71, (3S)-N-[2-(1-benzylpiperidin-4-yl)ethyl]-3-methyl-4-(3,4,5-trifluorophenyl)piperazine-1-carboxamide], the Ki was below 10 nM on human M4 receptor; above 1000 nM at human M5 receptor; above 1000 nM at human M3 receptor; 100 to 1000 nM at human M1 receptor; 100 to 1000 nM on human M2 receptor.

Regarding `C[C@H]1CN(c2ccc(C#N)cn2)CCC1C(=O)NCCC1CCN(Cc2ccccc2)CC1` (stereo partly drawn) [10-79, (3R)-N-[2-(1-benzylpiperidin-4-yl)ethyl]-1-(5-cyanopyridin-2-yl)-3-methylpiperidine-4-carboxamide], the Ki is below 10 nM at human M4 receptor; 100 to 1000 nM on human M5 receptor; above 1000 nM at human M3 receptor; 100 to 1000 nM at human M1 receptor; 10 to 100 nM at human M2 receptor.

Regarding `C[C@@H]1CN(C(=O)NCCC2CCN(Cc3ccccc3)CC2)CCN1c1cc(F)c(F)c(F)c1` [4-17, (3R)-N-[2-(1-benzylpiperidin-4-yl)ethyl]-3-methyl-4-(3,4,5-trifluorophenyl)piperazine-1-carboxamide], the Ki at human M4 receptor is below 10 nM; at human M5 receptor, above 1000 nM; on human M3 receptor it was above 1000 nM; on human M1 receptor it was above 1000 nM; on human M2 receptor, 100 to 1000 nM.

Regarding `N#Cc1ccc(N2CCC(C(=O)NCCC3CCN(Cc4ccccc4)CC3)CC2)cc1OC(F)(F)F` [10-13, N-[2-(1-benzylpiperidin-4-yl)ethyl]-1-[4-cyano-3-(trifluoromethoxy)phenyl]piperidine-4-carboxamide], the Ki at human M4 receptor was below 10 nM; at human M5 receptor, above 1000 nM; at human M3 receptor, above 1000 nM; at human M1 receptor, 100 to 1000 nM; at human M2 receptor, 100 to 1000 nM.

For the compound `C[C@@H]1CN(c2cc(F)c(F)c(F)c2)CCN1C(=O)NCCC1CCN(Cc2cccc3c2OCC3)CC1` [6-3, (2R)-N-{2-[1-(2,3-dihydro-1-benzofuran-7-ylmethyl)piperidin-4-yl]ethyl}-2-methyl-4-(3,4,5-trifluorophenyl)piperazine-1-carboxamide], the inhibitory constant (Ki) at human M4 receptor is below 10 nM; at human M5 receptor, above 1000 nM; at human M3 receptor, 100 to 1000 nM; at human M1 receptor, 100 to 1000 nM; on human M2 receptor it was 10 to 100 nM.

Turning to `C[C@@H]1CN(c2ncc(C(F)(F)F)cn2)CCN1C(=O)NCCC1CCN(Cc2cccc(F)c2)CC1` [6-36, (2R)-N-(2-{1-[(3-fluorophenyl)methyl]piperidin-4-yl}ethyl)-2-methyl-4-[5-(trifluoromethyl)pyrimidin-2-yl]piperazine-1-carboxamide], the Ki on human M4 receptor is below 10 nM; on human M5 receptor, above 1000 nM; at human M3 receptor it was above 1000 nM; on human M1 receptor, 100 to 1000 nM; at human M2 receptor, 100 to 1000 nM.

In the case of `C[C@@H]1CN(c2ncc(C(F)(F)F)cn2)CCN1C(=O)NCCC1CCN(Cc2ccc(F)cc2)CC1` [6-37, (2R)-N-(2-{1-[(4-fluorophenyl)methyl]piperidin-4-yl}ethyl)-2-methyl-4-[5-(trifluoromethyl)pyrimidin-2-yl]piperazine-1-carboxamide], the inhibitory constant (Ki) at human M4 receptor is below 10 nM; at human M5 receptor, above 1000 nM; on human M3 receptor, above 1000 nM; at human M1 receptor, 100 to 1000 nM; on human M2 receptor it was 10 to 100 nM.
